The numbers were not newly measured in US20240344040A1, “PROKARYOTIC AND EUKARYOTIC CELLS WITH BIOSYNTHESIZED SULFOTYROSINE FOR GENETIC INCORPORATION” (William Marsh Rice University, priority 2023, published 2024), which cites them from elsewhere.

For this series the following is noted: cells incubated with 1 mM pThr.

Turning to `C[C@@H](OP(=O)(O)O)[C@H](N)C(=O)O` [phosphothreonine], the intracellular detection result was “cannot be detected intracellularly”.
